From ChEMBL document CHEMBL4145551, “Mitochondria-targeting indolizino[3,2-c]quinolines as novel class of photosensitizers for photodynamic anticancer activity” (Eur J Med Chem, 2018)
Activity calls are given as the source filed them. No cut-off for these calls is given here.

Tests used:
HeLa [1] = test: Photocytotoxicity against human HeLa cells assessed as plasma membrane blebbing at 0.5 uM preincubated for 1 hr followed by blue LED light irradiation for 5 mins and measured after 13 hrs by propidium iodide staining based fluorescence microscopic method; format: functional, cell-based
[2] = Dark toxicity in human HeLa cells assessed as morphological changes at 10 uM measured after 14 hrs by propidium iodide staining based fluorescence microscopic method; format: cell-based
[3] = Drug uptake in human MCF7 cell mitochondria at 10 uM incubated for 1 to 2 hrs under 488 nanometer laser light irradiation by confocal microscopic method; format: ADME; conditions: mcf7, 10 µM
HeLa [4] = test: Photocytotoxicity against human HeLa cells assessed as reduction in cell viability at 2 uM preincubated for 1 hr followed blue LED light irradiation for 5 mins and measured after 24 hrs in presence of singlet oxygen scavenger histidine by MTT assay; format: functional, cell-based
[5] = Induction of singlet oxygen production assessed as photodegradation of DPBF by measuring quantum yield after irradiation with 356 nanometer light by UV-Visible spectroscopic analysis; format: functional
HeLa [6] = test: Photocytotoxicity against human HeLa cells assessed as plasma membrane blebbing at 20 uM preincubated for 1 hr followed by blue LED light irradiation for 10 mins and measured after 2.5 hrs by holotomographic method; format: functional, cell-based
[7] = Drug uptake in human HeLa cell mitochondria at 10 uM incubated for 1 to 2 hrs under 488 nanometer laser light irradiation by confocal microscopic method; format: ADME
HeLa [8] = test: Photocytotoxicity against human HeLa cells assessed as plasma membrane blebbing up to 10 uM preincubated for 1 hr followed by blue LED light irradiation for 5 mins and measured after 13 hrs by Hoechst 33258 staining based fluorescence microscopic method; format: functional, cell-based
[9] = Dark toxicity in human HeLa cells assessed as reduction in cell viability up to 10 uM measured after 24 hrs by MTT assay; format: cell-based
HeLa [10] = test: Photocytotoxicity against human HeLa cells assessed as cell rounding at 20 uM preincubated for 1 hr followed by blue LED light irradiation for 10 mins and measured after 2.5 hrs by holotomographic method; format: functional, cell-based
[11] = Dark toxicity in human MCF7 cells assessed as reduction in cell viability up to 10 uM measured after 24 hrs by MTT assay; format: cell-based; conditions: mcf7, 24 h
HeLa [12] = test: Photocytotoxicity against human HeLa cells assessed as reduction in cell viability preincubated for 1 hr followed blue LED light irradiation for 10 mins and measured after 24 hrs by MTT assay; format: functional, cell-based
HeLa [13] = test: Photocytotoxicity against human HeLa cells assessed as increase in cleaved caspase-9 protein expression preincubated for 1 hr followed by blue LED light irradiation for 10 mins and measured after 18 hrs by Western blot analysis; format: functional, cell-based
MCF7 [14] = test: Photocytotoxicity against human MCF7 cells assessed as induction of mitochondrial membrane potential depolarization at 10 uM preincubated for 1 hr followed by blue LED light irradiation for 5 mins by TMRE staining based confocal microscopic method; format: functional, cell-based
HeLa [15] = test: Photocytotoxicity against human HeLa cells assessed as membrane protrusion at 20 uM preincubated for 1 hr followed by blue LED light irradiation for 10 mins and measured after 2.5 hrs by holotomographic method; format: functional, cell-based
HeLa [16] = test: Photocytotoxicity against human HeLa cells assessed as membrane protrusion at 5 uM preincubated for 1 hr followed by blue LED light irradiation for 10 to 30 mins and measured after 2.5 hrs by holotomographic method; format: functional, cell-based
HeLa [17] = test: Photocytotoxicity against human HeLa cells assessed as increase in cleaved PARP protein expression preincubated for 1 hr followed by blue LED light irradiation for 10 mins and measured after 18 hrs by Western blot analysis; format: functional, cell-based
MCF7 [18] = test: Photocytotoxicity against human MCF7 cells assessed as reduction in cell viability preincubated for 1 hr followed blue LED light irradiation for 5 mins and measured after 24 hrs by MTT assay; format: functional, cell-based
[19] = Drug uptake in human HeLa cell nucleus at 10 uM after 1 hr by mitotracker red staining based confocal laser scanning microscopic method; format: ADME, subcellular
A549 [20] = test: Photocytotoxicity against human A549 cells assessed as reduction in cell viability preincubated for 1 hr followed blue LED light irradiation for 5 mins and measured after 24 hrs by MTT assay; format: functional, cell-based
HeLa [21] = test: Photocytotoxicity against human HeLa cells assessed as plasma membrane blebbing at 5 uM preincubated for 1 hr followed by blue LED light irradiation for 10 to 30 mins and measured after 2.5 hrs by holotomographic method; format: functional, cell-based
DNA [22] = test: Induction of Escherichia coli pBR322 DNA cleavage at 20 uM irradiated with blue LED light after 30 mins in presence of H2O2 scavenger KI by agarose gel electrophoresis method; format: nucleic-acid assay
HeLa [23] = test: Photocytotoxicity against human HeLa cells assessed as cell membrane blebbing at 10 uM preincubated for 1 hr followed by blue LED light irradiation for 5 mins by differential interference contrast imaging analysis; format: functional, cell-based
DNA [24] = test: Binding affinity to Escherichia coli pBR322 DNA assessed as increase in test compound fluorescence after 30 mins under blue LED light irradiation; format: nucleic-acid assay
[25] = Dark toxicity in human A549 cells assessed as reduction in cell viability up to 10 uM measured after 24 hrs by MTT assay; format: cell-based; conditions: a549, 24 h
DNA [26] = test: Binding affinity to Escherichia coli pBR322 DNA assessed as increase in test compound fluorescence irradiated with blue LED light for 5 to 20 mins; format: nucleic-acid assay
HeLa [27] = test: Photocytotoxicity against human HeLa cells assessed as increase in cleaved caspase-3 protein expression preincubated for 1 hr followed by blue LED light irradiation for 10 mins and measured after 18 hrs by Western blot analysis; format: functional, cell-based
HeLa [28] = test: Photocytotoxicity against human HeLa cells assessed as induction of mitochondrial damage by measuring mitochondrial swelling at 10 uM preincubated for 1 hr followed by 488 nanometer laser light irradiation up to 6 mins by mitotracker red staining based confocal laser scanning microscopic method; format: functional, cell-based
HeLa [29] = test: Induction of ROS generation in human HeLa cells preincubated for 1 hr followed by blue LED light irradiation for 15 mins by DHE staining based HCS analysis; format: functional, cell-based
A549 [30] = test: Photocytotoxicity against human A549 cells assessed as reduction in cell viability preincubated for 1 hr followed blue LED light irradiation for 10 mins and measured after 24 hrs by MTT assay; format: functional, cell-based
MCF7 [31] = test: Photocytotoxicity against human MCF7 cells assessed as reduction in cell viability preincubated for 1 hr followed blue LED light irradiation for 10 mins and measured after 24 hrs by MTT assay; format: functional, cell-based
NIH3T3 = test: Cytotoxicity against mouse NIH/3T3 cells assessed as cytoplasmic shrinkage at 10 uM preincubated for 1 hr followed by 488 nanometer laser light irradiation and measured after 16 mins by confocal microscopic method; format: cell-based; conditions: nih3t3, 16 min
HeLa [32] = test: Photocytotoxicity against human HeLa cells assessed as induction of mitochondrial membrane potential depolarization at 10 uM preincubated for 1 hr followed by blue LED light irradiation for 5 mins by TMRE staining based confocal microscopic method; format: functional, cell-based
Calf thymus DNA = test: Binding affinity to calf thymus DNA assessed as red shift in emission maxima; format: nucleic-acid assay; conditions: Bos taurus
HeLa [33] = test: Photocytotoxicity against human HeLa cells assessed as cell rounding at 5 uM preincubated for 1 hr followed by blue LED light irradiation for 10 to 30 mins and measured after 2.5 hrs by holotomographic method; format: functional, cell-based

Q: Which Activity (HeLa [1]) does the source give for `Cc1cccn2c1cc1c3ccccc3nc(-c3ccco3)c12` here?
A: Active

Q: What about the Activity [2] of the same compound?
A: Non-Toxic

Q: And the Drug uptake [3]?
A: Active

Q: And the Activity (HeLa [4])?
A: inactive

Q: And the Activity [5]?
A: 0.33

Q: And the Activity (HeLa [6])?
A: Active

Q: And the Drug uptake [7]?
A: Active

Q: And the Activity (HeLa [8])?
A: Active

Q: What about the Activity [9] of the same compound?
A: Non-Toxic

Q: What about the Activity (HeLa [10]) of the same compound?
A: Active

Q: What about the Activity [11] of the same compound?
A: Non-Toxic

Q: What about the Activity (HeLa [12]) of the same compound?
A: Dose-dependent effect

Q: What about the IC50 (HeLa [12]; light or radiation study) of the same compound?
A: 1.12 µM

Q: And the Activity (HeLa [13])?
A: Dose-dependent effect

Q: What about the Activity (MCF7 [14]) of the same compound?
A: Active

Q: What about the Activity (HeLa [15]) of the same compound?
A: Active

Q: What about the Activity (HeLa [16]) of the same compound?
A: Active

Q: What about the Activity (HeLa [17]) of the same compound?
A: Dose-dependent effect

Q: What about the Activity (MCF7 [18]) of the same compound?
A: Dose-dependent effect

Q: And the IC50 (MCF7 [18]; MCF7, light or radiation study)?
A: 2.39 µM

Q: And the Drug uptake [19]?
A: Not Active

Q: What about the Activity (A549 [20]) of the same compound?
A: Dose-dependent effect

Q: What about the IC50 (A549 [20]; A549, light or radiation study) of the same compound?
A: 2.96 µM

Q: And the Activity (HeLa [21])?
A: Active

Q: And the Activity (DNA [22])?
A: inactive

Q: What about the Activity (HeLa [23]) of the same compound?
A: Active

Q: What about the Activity (DNA [24]) of the same compound?
A: Dose-dependent effect

Q: And the Activity [25]?
A: Non-Toxic

Q: What about the Activity (DNA [26]) of the same compound?
A: Active

Q: What about the Activity (HeLa [27]) of the same compound?
A: Dose-dependent effect

Q: And the Activity (HeLa [28])?
A: Active

Q: And the Activity (HeLa [29])?
A: Dose-dependent effect

Q: What about the Activity (A549 [30]) of the same compound?
A: Dose-dependent effect

Q: What about the IC50 (A549 [30]; A549, light or radiation study) of the same compound?
A: 2.37 µM

Q: What about the Activity (MCF7 [31]) of the same compound?
A: Dose-dependent effect

Q: What about the IC50 (MCF7 [31]; MCF7, light or radiation study) of the same compound?
A: 1.67 µM

Q: And the Activity (NIH3T3)?
A: Non-Toxic

Q: What about the Activity (HeLa [32]) of the same compound?
A: Active

Q: And the Activity (Calf thymus DNA)?
A: 36 nm

Q: What about the Activity (HeLa [33]) of the same compound?
A: Active
